In patent US20210094933A1, “RAPAFUCIN DERIVATIVE COMPOUNDS AND METHODS OF USE THEREOF” (The Johns Hopkins University, priority 2019, published 2021):

Key:
Format in all cases: cell-based
293T = experiment: Nucleoside uptake assay (3H-Thymidine), IC50 relative to DMSO control; settings: 293T cells
Description: (§1) Nucleoside Uptake Assay (uptake). Nuceloside uptake assays were performed with using 3H-Thymidine as described in Guo et al. (2018) Nat. Chem, 11:254-63. Specific cell lines are indicated in each assay and cultured in complete growth media. Activity is scored according to the IC50 values relative to DMSO control. “Low” indicates an IC50 greater than 600 nM, “Medium” indicates an IC50 between 300 nM and 600 nM “High” indicates an IC50 less than 300 nM. “Rel.Uptake” refers to uptake activity characterization relative to a single concentration assay. “Low” indicates a response greater than 0.6 times the activity relative to DMSO, “Medium” indicates a response between 0.6 and 0.3 times the activity relative to DMSO, “High” indicates a response less than 0.3 times the activity relative to DMSO.

[1] = Nucleoside uptake assay, single concentration (Rel.Uptake), response relative to DMSO; cell line indicated in each table
Description: as §1

H929 = experiment: Cell proliferation assay (Prolif.), IC50 relative to DMSO control; settings: H929 cells; class relative to DMSO control
Description: (§2) Cell Proliferation Assay (Prolif.) Guo et al. (2018) Nat. Chem. 11:254-63. Specific cell lines are indicated in each assay and cultured in complete growth media. Activity is scored according to the IC50 values relative to DMSO control. “Low” indicates an IC50 greater than 600 nM, “Medium” indicates an IC50 between 300 nM and 600 nM “High” indicates an IC50 less than 300 nM. “Rel.Uptake” refers to uptake activity characterization relative to a single concentration assay. “Low” indicates a response greater than 0.6 times the activity relative to DMSO, “Medium” indicates a response between 0.6 and 0.3 times the activity relative to DMSO, “High” indicates a response less than 0.3 times the activity relative to DMSO.

[2] = Cell proliferation assay, single concentration, response relative to DMSO; cell line indicated in each table; settings: NCI-H929 cells
Description: as §2

[3] = 3H-Thymidine uptake, IC50 class relative to DMSO control
[4] = 293 T cells, nucleoside uptake at single concentration
[5] = 293 T cells, single concentration
[6] = nucleoside uptake, single concentration, 293T cells

| Compound | Uptake, 293T (293T; [3]) | Rel. Uptake, 293 T [1, 4] | other results |
| --- | --- | --- | --- |
| COc1ccc(CC[C@H]2OC(=O)[C@@H]3CCCCN3C(=O)C(=O)C(C)(C)CNC(=O)C=CCCN(C)C(=O)[C@H](CC(C)C)N(C)C(=O)[C@H]3CCCN3C(=O)[C@H](Cc3ccccc3)N(C)C(=O)C(c3ccccc3)NC(=O)CCC(=O)Nc3cccc2c3)cc1OC (stereo partly drawn) [Compound 1555] | high | high |  |
| COc1ccc(CC[C@H]2OC(=O)[C@@H]3CCCCN3C(=O)C(=O)C(C)(C)COC(=O)C=CCCN(C)C(=O)[C@H](CC(C)C)N(C)C(=O)[C@H]3CCCN3C(=O)[C@H]3C[C@@H](NC(=O)OC(C)(C)C)CN3C(=O)C(c3ccccc3)NC(=O)CCC(=O)Nc3cccc2c3)cc1OC (stereo partly drawn) [Compound 1087] | low |  | Rel. Uptake, 293 T [1, 5]: low |
| COc1ccc(CC[C@H]2OC(=O)[C@@H]3CCCCN3C(=O)C(=O)C(C)(C)COC(=O)C=CCCN(C)C(=O)[C@H](CC(C)C)N(C)C(=O)[C@H]3CCCN3C(=O)[C@H](Cc3ccc(C(=O)Nc4cccnc4)cc3)NC(=O)[C@H](c3ccccc3)NC(=O)CCC(=O)Nc3cccc2c3)cc1OC [Compound 1562] |  | low | Uptake, 293T (293T; Table 14): low |
| COc1ccc(CC[C@H]2OC(=O)[C@@H]3CCCCN3C(=O)C(=O)C(C)(C)COC(=O)C=CCCN(C)C(=O)[C@H](CC(C)C)N(C)C(=O)[C@H]3CCCN3C(=O)[C@H](Cc3ccc(CC(=O)NCc4ccccc4)cc3)NC(=O)[C@H](c3ccccc3)NC(=O)CCC(=O)Nc3cccc2c3)cc1OC [Compound 1590] |  | High (“High” indicates a response less than 0.3 times the activity relative to DMSO) | IC50 (293T; Table 14): > 600 nM |
| COc1ccc(CC[C@H]2OC(=O)[C@@H]3CCCCN3C(=O)C(=O)C(C)(C)COC(=O)C=CCCN(C)C(=O)[C@H](CC(C)C)N(C)C(=O)[C@H]3CCCN3C(=O)[C@H](Cc3ccc(C(=O)NCCO)cc3)NC(=O)[C@H](c3ccccc3)NC(=O)CCC(=O)Nc3cccc2c3)cc1OC [Compound 1558] |  | high | Uptake, 293T (293T; Table 14): high |
| COc1ccc(CC[C@H]2OC(=O)[C@@H]3CCCCN3C(=O)C(=O)C(C)(C)COC(=O)C=CCCN(C)C(=O)[C@@H](c3ccccc3)NC(=O)[C@H](Cc3ccc(OP(C)(C)=O)cc3)NC(=O)[C@H]3CCCN3C(=O)[C@H](CC(C)C)N(C)C(=O)COc3cccc2c3)cc1OC [Compound 1520] | low | low |  |
| COc1ccc(CC[C@H]2OC(=O)[C@@H]3CCCCN3C(=O)C(=O)C(C)(C)COC(=O)C=CCCN(C)C(=O)[C@H](CC(C)C)N(C)C(=O)[C@H]3CCCN3C(=O)[C@H](Cc3ccc(O)cc3)NC(=O)C(c3ccccc3)NC(=O)CCC(=O)Nc3cccc2c3)cc1OC (stereo partly drawn) [Compound 1522] | high | high |  |
| COc1ccc(CC[C@H]2OC(=O)[C@@H]3CCCCN3C(=O)C(=O)C(C)(C)COC(=O)C=CCCN(C)C(=O)[C@H](CC(C)C)N(C)C(=O)[C@H]3CCCN3C(=O)[C@H](Cc3ccc(OCc4ccccc4)cc3)NC(=O)C(c3ccccc3)NC(=O)CCC(=O)Nc3cccc2c3)cc1OC (stereo partly drawn) [Compound 1082] | low |  | Rel. Uptake, 293 T [1, 6]: low |
| COc1ccc(CC[C@H]2NC(=O)[C@@H]3CCCCN3C(=O)C(=O)C(C)(C)CNC(=O)C=CCCN(C)C(=O)[C@H](CC(C)C)N(C)C(=O)[C@H]3CCCN3C(=O)[C@H](Cc3ccccc3)N(C)C(=O)C(c3ccccc3)NC(=O)CCC(=O)Nc3cccc2c3)cc1OC (stereo partly drawn) [Compound 1557] | high | high |  |
| COc1ccc(CC[C@H]2OC(=O)[C@@H]3CCCCN3C(=O)C(=O)C(C)(C)COC(=O)C=CCCN(C)C(=O)[C@@H](Cc3ccccc3)NC(=O)CN(C)C(=O)[C@@H](Cc3ccccc3)NC(=O)[C@H](Cc3ccc(OC(=O)N4CCOCC4)cc3)N(C)C(=O)COc3cc(F)cc2c3)cc1OC [Compound 868] |  |  | Prolif. H929 (H929): low; Rel. Prolif., NCI-H929 [2]: low |
| COc1ccc(CC[C@H]2OC(=O)[C@@H]3CCCCN3C(=O)C(=O)C(C)(C)COC(=O)C=CCCN(C)C(=O)[C@@H](Cc3ccccc3)NC(=O)CN(C)C(=O)[C@@H](Cc3ccccc3)NC(=O)[C@H](Cc3ccc(OC(=O)N4CCOCC4)cc3)N(C)C(=O)COc3cccc2c3F)cc1OC [Compound 867] |  |  | Prolif. H929 (H929): high; Rel. Prolif., NCI-H929 [2]: low |
| COc1ccc(CC[C@H]2OC(=O)[C@@H]3CCCCN3C(=O)C(=O)C(C)(C)COC(=O)C=CCCN(C)C(=O)[C@H](CC(C)C)N(C)C(=O)[C@H]3CCCN3C(=O)[C@H](Cc3ccc(C(=O)Nc4ccccc4)cc3)NC(=O)[C@H](c3ccccc3)NC(=O)CCC(=O)Nc3cccc2c3)cc1OC [Compound 1559] |  | medium | Uptake, 293T (293T; Table 14): me- dium |
| COc1ccc(CC[C@H]2OC(=O)[C@@H]3CCCCN3C(=O)C(=O)C(C)(C)COC(=O)C=CCCN(C)C(=O)[C@H](CC(C)C)N(C)C(=O)[C@H]3CCCN3C(=O)[C@H](CC(=O)OC(C)(C)C)N(C)C(=O)C(c3ccccc3)NC(=O)CCC(=O)Nc3cccc2c3)cc1OC (stereo partly drawn) [Compound 1066] | high |  | Rel. Uptake, 293 T [1, 6]: high |
| COc1ccc(CC[C@H]2OC(=O)[C@@H]3CCCCN3C(=O)C(=O)C(C)(C)COC(=O)C=CCCN(C)C(=O)[C@H](CC(C)C)N(C)C(=O)[C@H]3CCCN3C(=O)[C@H](Cc3ccc(CNC(=O)CN(C)C)cc3)NC(=O)[C@H](c3ccccc3)NC(=O)CCC(=O)Nc3cccc2c3)cc1OC [Compound 1587] |  | Low (“Low” indicates a response greater than 0.6 times the activity relative to DMSO) | IC50 (293T; Table 13): > 600 nM |
| COc1ccc(CC[C@H]2OC(=O)[C@@H]3CCCCN3C(=O)C(=O)C(C)(C)COC(=O)C=CCCN(C)C(=O)[C@@H](Cc3ccccc3)NC(=O)CN(C)C(=O)[C@@H](Cc3ccccc3)NC(=O)[C@H](Cc3ccc(OC(=O)N4CCOCC4)cc3)N(C)C(=O)CCC(=O)Nc3cccc2c3)cc1OC [Compound 869] |  |  | Prolif. H929 (H929): high; Rel. Prolif., NCI-H929 [2]: low |
| CCCCCCNC(=O)Cc1ccc(C[C@@H]2NC(=O)[C@H](c3ccccc3)NC(=O)CCC(=O)Nc3cccc(c3)[C@@H](CCc3ccc(OC)c(OC)c3)OC(=O)[C@@H]3CCCCN3C(=O)C(=O)C(C)(C)COC(=O)C=CCCN(C)C(=O)[C@H](CC(C)C)N(C)C(=O)[C@H]3CCCN3C2=O)cc1 [Compound 1591] |  | Med | IC50 (293T; Table 14): > 600 nM |
| COc1ccc(CC[C@H]2OC(=O)[C@@H]3CCCCN3C(=O)C(=O)C(C)(C)COC(=O)C=CCCN(C)C(=O)[C@H](CC(C)C)N(C)C(=O)[C@H]3CCCN3C(=O)[C@H](Cc3ccccc3)N(C)C(=O)[C@H](CC(=O)OC(C)(C)C)NC(=O)CCC(=O)Nc3cccc2c3)cc1OC [Compound 1088] | low |  | Rel. Uptake, 293 T [1, 5]: low |
| COc1ccc(CC[C@H]2OC(=O)[C@@H]3CCCCN3C(=O)C(=O)C(C)(C)COC(=O)C=CCCN(C)C(=O)[C@H](CC(C)C)N(C)C(=O)[C@H]3CCCN3C(=O)[C@H](Cc3ccc(CNC(=O)c4ccccc4)cc3)NC(=O)[C@H](c3ccccc3)NC(=O)CCC(=O)Nc3cccc2c3)cc1OC [Compound 1585] |  | High (“High” indicates a response less than 0.3 times the activity relative to DMSO) | IC50 (293T; Table 13): < 300 nM |
| COc1ccc(CC[C@H]2OC(=O)[C@@H]3CCCCN3C(=O)C(=O)C(C)(C)COC(=O)C=CCCN(C)C(=O)[C@H](CC(C)C)N(C)C(=O)[C@H]3CCCN3C(=O)[C@H](Cc3cccc(NC(C)=O)c3)NC(=O)[C@H](c3ccccc3)NC(=O)CCC(=O)Nc3cccc2c3)cc1OC [Compound 1588] |  | High (“High” indicates a response less than 0.3 times the activity relative to DMSO) | IC50 (293T; Table 13): < 300 nM |
| COc1ccc(CC[C@H]2OC(=O)[C@@H]3CCCCN3C(=O)C(=O)C(C)(C)COC(=O)C=CCCN(C)C(=O)[C@H](CC(C)C)N(C)C(=O)[C@H]3CCCN3C(=O)[C@H](Cc3ccc(CC(=O)OC(C)(C)C)cc3)NC(=O)C(c3ccccc3)NC(=O)CCC(=O)Nc3cccc2c3)cc1OC (stereo partly drawn) [Compound 1081] | medium |  | Rel. Uptake, 293 T [1, 6]: medium |
| COc1ccc(CC[C@H]2OC(=O)[C@@H]3CCCCN3C(=O)C(=O)C(C)(C)COC(=O)C=CCCN(C)NC(c3ccccc3)C(=O)N(C)[C@@H](Cc3ccccc3)C(=O)N3CCC[C@@H]3C(=O)N(C)[C@@H](CC(C)C)C(=O)C(=O)CCOc3cccc2c3)cc1OC (stereo partly drawn) [Compound 1556] | low | low |  |
